Source: patent US6812222B1, “Biocompatible aqueous solution for use in continuous ambulatory peritoneal dialysis” (priority 1995, dated 2004)
Like-named read-outs stand apart in the source and are kept apart here.

Tests used:
human mesothelial cells = experiment: Stimulation of hyaluronic acid in tissue culture of human mesothelial cells; format: cell-based
[1] = system: chemically induced inflammatory bowel reaction with bowel wall thickening or fibrosis; experiment: Colon fibrosis (weight of 8 cm of colon) after intrarectal TNB/ethanol in rats; format: in vivo; settings: for Colon fibrosis (as measured by weight of 8 cm of colon), mean ± SEM: rats
Excerpt: In animal models of inflammatory bowel disease the colon becomes fribrotic, as does the peritoneum as a result of chronic intraperitoneal dialysis. […] It is to be expected that in a similar manner NAG will prevent the development of fibrosis of the peritoneum in CAPD patients. [table]

peritoneal membrane = format: in vivo, rats; settings: for Hyaluronic Acid in Dialysate Fluid / Mass Transfer Area Coef for Urea / Peritoneal Clearance of Urea: 4 hours dwell; for Net Ultrafiltration: pH 7.35-7.4, 4 hours dwell, 20 mL infused
Experimental: In experiments in which rats were dialyzed for 4 hours with Hanks Balances salt solution with either glucose or N-acetylglucosamine added at a concentration of 75 mM or 214 mM, at a pH of 7.35-7.4. The net utrafiltration was calculated as the difference between the drained volume of dialysate after 4 hours dwell time in the peritoneal cavity and the infused volume (20 mL) of the dialysis fluid. As well, the concentration of urea and creatinine in the blood and the dialysis fluid were measured. Permeability of the peritoneal membrane to urea and creatinine, expressed as the Mass Transfer Area Coefficient which was calculated according to the method of Krediet et al (Blood Purif 4: 194, 1986). […] In addition, the inclusion of NAG in the dialysate fluid stimulated the synthesis of hyaluronic acid, as shown by the more than 100% increase in amount of hyaluronic acid secreted in the dialysis fluid compared to the glucose treated rats.

[2] = 7.5% solution; cited from earlier work
[3] = versus glucose, rats dialyzed 4 hours

Compound: CC(=O)N[C@H]1C(O)O[C@H](CO)[C@@H](O)[C@@H]1O (stereo partly shown) [NAG, N-acetylglucosamine]
- Stimulation of hyaluronic acid (human mesothelial cells): stimulation of hyaluronic acid by N-acetylglucosamine was confirmed
- Colon fibrosis (as measured by weight of 8 cm of colon), mean ± SEM ([1]; 25 mg NAG/kg BWt intrarectal 1 hr before TNB/EtOH): 1.669 ± 0.142 gm
- Colon fibrosis (as measured by weight of 8 cm of colon), mean ± SEM ([1]; 50 mg NAG/kg BWt intrarectal 1 hr before TNB/EtOH): 1.339 ± 0.155 gm
- Colon fibrosis (as measured by weight of 8 cm of colon), mean ± SEM ([1]; 100 mg NAG/kg BWt intrarectal 1 hr before TNB/EtOH): 1.150 ± 0.068 gm
- Fibrotic reaction to the inflammatory stimulus ([1]; solution of NAG administered into the bowel of rats): reduces in a dose dependent manner
- Hyaluronic Acid in Dialysate Fluid (peritoneal membrane; 75 mM in dialysis fluid): 226 ± 93 µg/L
- Mass Transfer Area Coef for Urea (peritoneal membrane; 75 mM in dialysis fluid): 0.287 ± 0.13 mL/min
- Peritoneal Clearance of Urea (peritoneal membrane; 75 mM in dialysis fluid): 18.4 ± 2.1 mL/min
- Net Ultrafiltration (peritoneal membrane; 75 mM in dialysis fluid): −0.11 ± 1.6 mL/4 hrs
- Hyaluronic Acid in Dialysate Fluid (peritoneal membrane; 214 mM in dialysis fluid): 217 µg/L
- Mass Transfer Area Coef for Urea (peritoneal membrane; 214 mM in dialysis fluid): 0.262 ± 0.15 mL/min
- Peritoneal Clearance of Urea (peritoneal membrane; 214 mM in dialysis fluid): 30.0 mL/min
- Net Ultrafiltration (peritoneal membrane; 214 mM in dialysis fluid): 14.45 mL/4 hrs
- Increase in amount of hyaluronic acid secreted in the dialysis fluid (peritoneal membrane; compared to the glucose treated rats): more than 100%
- Albumin or total protein loss into the dialysis fluid (in words) (peritoneal membrane; rat, in vivo): without increasing
- Net ultrafiltration (in words) (peritoneal membrane; [3]): statistically significant increase
- Peritoneal clearance of urea (in words) (peritoneal membrane; [3]): statistically significant increase

Compound: Icodextrin
- Osmolality [2]: 282 mOsm/kg
- pH of solution [2]: 5.3
